Source: publication PMC12040169 (PLOS Biology, 2025)

Experiment: in vitro
Conditions: human, hela cells, % viability

SMILES | viability at 28.5 h, 10 µM
Cc1cc(NC(=O)CN2CCCC2CC(O)c2ccccc2)no1 (stereo not shown) [CBK305139] | 88.8%
CCn1nc(C)c(-c2cncn2CC(C)N2CCCCC2)c1C (stereo not shown) [CBK281808] | 102%
Cc1ccn(CCNC(=O)CSc2nccc3ccccc23)n1 [CBK282678] | 104%
CCOc1cccc(-c2ccc(Nc3ccc(Oc4ccccc4)cc3)nc2)c1 [CBK037679] | 94.4%
CCOc1ccc(S(=O)(=O)N(C)CC(=O)O)cc1 [CBK270032] | 90.4%
Cn1cccc1C(=O)Nc1cc2ccccc2c(N2CCNCC2)n1 [CBK036347T] | 95.5%
O=C(O)c1cccc(NS(=O)(=O)c2ccc(-c3cnco3)cc2)c1 [CBK155726] | 97.4%
CCCCNc1cc(N2CCOC(Cn3cc(C)cn3)C2)nc(N)n1 (stereo not shown) [CBK305417] | 53.3%
CCN1CCCc2cc(-c3cncn3CCCn3ccnc3C)ccc21 [CBK281810] | 109%
O=C(NCCCn1cccc1)N1CCN(Cc2ccc(F)cc2)CC1 [CBK306994] | 107%
Cc1cc(NC(=O)c2cccc(N3C(=O)CCC3=O)c2)no1 [CBK287352] | 112%
COc1cc(-c2cnc3[nH]c(=O)n(C4CCOCC4)c3n2)cc(OC)c1OC [CBK064255] | 94.6%
COCc1nc(C)c(C(=O)NC2CCCN(c3ccn(C)n3)C2=O)s1 (stereo not shown) [CBK306497] | 92.2%
CCOc1ccc(-c2cnc(SCC(=O)O)nc2N)cc1 [CBK269928] | 105%
O=c1[nH]c2ccccc2n1C1CCN(S(=O)(=O)c2ccc(OC(F)(F)F)cc2)CC1 [CBK149690] | 93.8%
N#CCCN(C(=O)NCc1ccc(Cl)c(Cl)c1)C1CCCCC1 [CBK156349] | 85.5%
Cn1c(=O)n(C)c2cc(S(=O)(=O)ON3C(=O)c4cccc5cc([N+](=O)[O-])cc(c45)C3=O)ccc21 [CBK267566] | 91.6%
CCOC(=O)CN1C(=O)S/C(=C/c2cc(Cl)c(OCC(=O)O)c(Br)c2)C1=O [CBK264614] | 106%
CNC(=O)c1cccnc1N1CCN(CCCC(c2ccc(F)cc2)c2ccc(F)cc2)CC1 [CBK025309C] | 95%
O=C(O)Cc1ccc(NC(=S)Nc2cccc(Cl)c2Cl)cc1 [CBK267064] | 107%
CNC(=O)c1sc2ccccc2c1C1CCN(Cc2ccc(OC)c(OC(C)C)c2)C1 (stereo not shown) [CBK285928] | 95.5%
Cc1c(C)n(Cc2ccccc2)c2ccc(C(=O)OCCN3CCOCC3)cc12 [CBK262427] | 104%

SMILES | viability at 28.5 h, 10 µM
COc1cccc(CNCc2ccccc2[N+](=O)[O-])c1OC [CBK262198] | 98%
CCN(CC)CCN1CCN(c2cc(-c3cccc4ccccc34)ncn2)CC1 [CBK091196] | 99.9%
CCCCn1c(SCC(=O)N(C)Cc2cnn(-c3ccccc3)c2)n[nH]c1=O [CBK296732] | 106%
Cc1ccc(C(=O)N2CCC[C@@H]3NC(=O)c4ccccc4OCC/C=C/C[C@@H]32)c(O)n1 [CBK292080] | 98.2%
COc1ccc(C)cc1N(CC(=O)Nc1ccc(F)c(F)c1)S(C)(=O)=O [CBK267006] | 96.5%
Cc1cc(C)n(CC(C)CNC(=O)Cc2csc(-c3ccco3)n2)n1 (stereo not shown) [CBK305628] | 103%
CCN(CC)C(=O)C1CCCN(C(=O)NCCCN2CCN(C)CC2)C1 (stereo not shown) [CBK156115] | 89.7%
Cc1nc2cc(-c3nccn3C)nn2c(N2CCN(c3ccc4c(c3)OCCO4)CC2)c1C [CBK286186] | 90.4%
Nc1nnc(Cn2c(-c3nonc3N)nc3ccccc32)s1 [CBK263854] | 117%
O=C(C1=C(O)C(=O)N(Cc2cccnc2)C1c1cccc([N+](=O)[O-])c1)c1ccccc1 (stereo not shown) [CBK263383] | 107%
CC(C)(C)c1cc(C(=O)N/N=C/c2ccc(O)c([N+](=O)[O-])c2)[nH]n1 [CBK263844] | 98.4%
CS(=O)(=O)c1ccc(-c2cnc3[nH]c(=O)n(Cc4cccs4)c3n2)cc1 [CBK064383] | 93.1%
O=C1CCC2(CCN1)CCN(Cc1cccc(-c3ccco3)c1)CC2 [CBK307264] | 115%
Cc1n[nH]c(C)c1CCC(=O)N/N=C/c1cccc(O)c1 [CBK262910] | 97.7%
Nc1nc(N)c([C@H]2C[C@@H](O)[C@@H](CO)O2)nc1Cl [CBK201326] | 103%
CC1CCCN(C(=O)c2cc(-c3ccccn3)n[nH]2)C1C (stereo not shown) [CBK283146] | 88.5%
Cc1nnnn1-c1cc(NC(=O)NCCc2ccnn2C)ccc1F [CBK306428] | 87.8%
COc1ccccc1C(NC(=O)C1CCN(C(=O)OC(C)C)CC1)c1ccccn1 (stereo not shown) [CBK059649] | 111%
Cc1ccc(OCC(=O)O/N=C(\N)c2ccccn2)cc1C [CBK264755] | 101%
Cc1cc(-c2cn3cc(C(=O)N(C)CC(C)O)nc3c(=O)n2C)c(C)o1 (stereo not shown) [CBK307154] | 88%
Cn1c(SCC(=O)n2c3c(c4ccccc42)CCCC3)nnc1-c1ccco1 [CBK267370] | 99.2%
CCN1CC2(CCN(CCCCC3NC(=O)NC3=O)CC2)c2ccccc21 (stereo not shown) [CBK131489] | 96%

SMILES | viability at 28.5 h, 10 µM
CC(=O)N1CCC(C(=O)NC(c2ccc3c(c2)OCO3)c2cccs2)CC1 (stereo not shown) [CBK059881] | 101%
O=C(Nc1ccc(-c2nnc(-c3ccco3)o2)cc1)C(c1ccccc1)c1ccccc1 [CBK263452] | 106%
CCn1ncc(S(=O)(=O)N2CCCC(c3cccc(-c4cccc(OC)c4)n3)C2)c1C (stereo not shown) [CBK286155] | 96.8%
CCOc1cccc(CNc2ccc(O)cc2)c1OCc1ccc(Cl)cc1Cl [CBK074528] | 106%
Cc1cc(C)n(C2CN(CC(=O)NCc3ccccn3)C2)n1 [CBK306238] | 88.3%
O=C(c1cccc(CN2CCN(c3nc(-c4ccccc4)ns3)CC2)c1)N1CCC(O)CC1 [CBK074709] | 110%
O=[N+]([O-])c1c(N(CCO)CCO)cc(Cl)c2nonc12 [CBK261446] | 92.5%
O=C(Nc1cccnc1)N1CCc2ccccc2C1 [CBK155312] | 100%
CC(C)c1ccc(C(=O)N2CCC(n3cnc4cccnc43)CC2)cc1 [CBK282370] | 82.3%
N/C(=N\OC(=O)c1ccccc1CCc1ccccc1)c1cccnc1 [CBK268188] | 91.5%
Cc1cccc(NC(=O)C(CC(=O)O)NCc2ccccc2)c1 (stereo not shown) [CBK266821] | 87.3%
CCCCc1ccc(Nc2csc(N)n2)cc1 [CBK020594] | 82.5%
O=C1CCC(=O)N1CCn1c(=O)n(C(=O)CCCOc2ccc(Cl)cc2)c2ccccc21 [CBK106496] | 93.4%
Clc1ccc(CN2CCN(CCc3ccccc3)CC2)cc1Cl [CBK126420] | 96.3%
CC(=O)NC[C@H]1CN(c2ccc(-c3nnc(C(C)O)s3)c(F)c2)C(=O)O1 (stereo partly shown) [CBK017968] | 99.6%
CC(=O)Nc1ccc(OCC(O)Cn2nc(-c3ccco3)oc2=O)cc1 (stereo not shown) [CBK305615] | 97.9%
O=C(NCc1cccc(C(F)(F)F)c1)N1CCN(CCc2ccccc2)CC1 [CBK158902] | 90.1%
O=C(c1ccco1)c1cnc2ccccn2c1=O [CBK010791] | 109%
CNC(=O)C1(Cc2ccccc2-c2cccc(F)c2)CCN(C(=O)Cc2ccccc2)CC1 [CBK285692] | 115%
COc1ncc(-c2cnc3[nH]c(=O)n(C4CC4)c3n2)cn1 [CBK064908] | 89.1%
CCN(CC)C(=O)COc1ccc(NC(=O)Nc2cc(C)on2)cc1Cl [CBK305734] | 104%
O=c1ccn([C@@H]2O[C@H](CO)[C@H](O)C2O)c(=O)[nH]1 (stereo partly shown) [CBK201159] | 95.1%

SMILES | viability at 28.5 h, 10 µM
CC(=O)N1CCc2c([nH]c3c(C)cccc23)C12CCN(CCOc1ccccc1)C2 (stereo not shown) [CBK039646] | 85.4%
O=C(c1ccccn1)C1CCCN(c2nccc(CCC(F)(F)F)n2)C1 (stereo not shown) [CBK306775] | 109%
Cc1ccccc1NC(=O)c1cnc2sccn2c1=O [CBK287447] | 74.9%
Cc1ccc2nsnc2c1NC(=O)CN1CCN(c2ccc(F)cc2)CC1 [CBK269231] | 98.9%
Nc1ncc(-c2cc3ccccc3s2)nc1-c1ccc(CCC(=O)O)cc1 [CBK064134] | 98.1%
Cc1ccc(NC(=O)CN2C(=O)c3ccccc3C2=O)c(C(=O)O)c1 [CBK262837] | 87.5%
NS(=O)(=O)c1ccc(NC(=O)CSc2ccc3ccccc3n2)cc1 [CBK265663] | 74.6%
Oc1ccc(-n2ncc(-c3ccc(Cl)cc3)n2)cc1 [CBK112794] | 86.8%
CCNCCOc1c(C)cc(C)cc1C [CBK270137C] | 108%
COc1ccc(-c2cnn(-c3cncnc3)n2)cc1 [CBK112763] | 94.5%
Cc1ccc(C2CCCN2C(=O)Cn2cc(C(=O)NCc3ccccc3)ccc2=O)cc1C (stereo not shown) [CBK286051] | 88.1%
O=C(CSc1nnc(-c2cccnc2)n1Cc1ccccc1)NCc1ccccc1 [CBK111647] | 95.7%
O=C(NCc1ccco1)c1ccc2c(=O)n(-c3ccccc3)c(=O)[nH]c2c1 [CBK287823] | 83.7%
CCOc1nc(NCCC2=CCCCC2)nc(OCC)n1 [CBK027387] | 86.9%
CCCC(=O)N1CCN(Cc2ccc3c(c2)OCO3)CC1 [CBK074367] | 92.7%
O=S(=O)(NCCCn1ccnc1)c1cc(Cl)ccc1Cl [CBK261767] | 105%
CS(=O)(=O)N1CC[C@H](c2nc3ccccc3s2)C1 [CBK289374] | 77.8%
O=C(NCc1ccccc1)c1ccc(CN2CCC(Cc3ccccc3)CC2)cc1 [CBK263432] | 87.5%
CC(C)(C)c1ccc(S(=O)(=O)N2CCNC(=O)C2)cc1 [CBK051238] | 88.9%
CC1(C#N)CCCN(Cc2c[nH]nc2C(=O)O)C1 (stereo not shown) [CBK307010] | 80.1%
CC(C)Nc1cccnc1N1CCN(C(=O)c2cc3cc(NS(=O)(=O)CCc4ccncc4)ccc3[nH]2)CC1 [CBK012661] | 95.8%

Same assay, conditions: human, hela cells, % viability, bulk resorufin, single well

SMILES | viability at 28.5 h, 10 µM
COc1cc(NC(=O)Nc2ccc3c(c2)COC2(CCNCC2)O3)cc(OC)c1OC [CBK091530T] | 94.9%
